Source: US11376307B2, “Compositions and methods of treating cancer with glycomimetic peptides” (SUSAVION BIOSCIENCES, INC., priority 2018, dated 2022)
Entries after “also recorded” stand apart in the source; their conditions may differ. Positions of bridges follow the written chain, without caps; N, C: chain ends. Chains are numbered I, II in the order given.

Assays:
peritoneal immune cells [1] = assay: Expansion of peritoneal cells after subcutaneous injection, flow cytometry; assay type: in vivo, C57BL/6 mice; settings: for Change in mature, active peritoneal immune cell populations: 1 nmol/g s.c. on days 0, 2, 4, cells 24 h after each injection
Experimental: FIGS. 7A-7D. Expansion of peritoneal cells in C57BL/6 mice. Mice were injected subcutaneously at a dose of 1 nmol/g body weight of svL4, sv6D or svC1. Cells in each population recovered in a peritoneal lavage are expressed as cell counts (in thousands). Cells from three mice in each treatment group were pooled for analysis. The number of cells in each population was normalized to the average recovery of total cells from all groups. For each cell type, the left-hand, middle and right-hand set of bars represent samples from mice treated with svL4, sv6D or svC1, respectively. Mice were injected on days 0, 2 and 4, and cells were collected 24 h after each injection. Day 1, open bar; day 3, grey bar; day 5, black bar. Populations that express activation markers are indicated by an asterisk.
(§1) Flow Cytometry Healthy C57BL/6 male mice, 10 weeks old, were injected subcutaneously with peptides on alternate days. Peritoneal cells were isolated from mice 24 h after dosing by injecting ice cold PBS (containing 3% FBS) into the peritoneal cavity, gently massaging the abdomen, and then collecting the fluid, which was transferred into K2EDTA-treated tubes for evaluation of specific biomarkers. Cells from three mice in each group were pooled, counted and divided among FACS tubes (1×10^6 cells per tube). Cells were washed once in PBS containing 3% FBS, then stained with 0.25 to 1 μg of fluorescently conjugated antibody per 10^6 cells in 100 μL of buffer as recommended by the manufacturer (Table 1).
Cells were incubated with the antibodies for 30 min at 4° C. in the dark. Following staining, the cells were washed two times with PBS/3% FBS and immediately analyzed with a MACSQuant flow cytometer (Miltenyi Biotech, Inc., San Diego, Calif.). Compensation was performed using single stain tubes for each color present in the analysis as well as an unstained control sample. Collection of flow cytometric data and analysis with FlowJo software, version 10.0.6 (FlowJo, LLC, Ashland, Oreg.) were performed by Biomodels LLC (Watertown, Mass.).
To examine whether increases occurred in mature immune cells, peritoneal cells from Balb/c and C57BL/6 mice were analyzed by flow cytometry after cells were stained with the markers listed in Table 1. […] To explore this observation more extensively, svL4 or sv6D was injected into C57BL/6 mice on day 0, 2 or 4. Peritoneal cells were examined by flow cytometry 24 h after each injection. Shown in FIGS. 7A-7D are results expressed as cell counts for F4/80 CD11b CD86 (mature, active macrophages); CD11c (DCs); CD11c CD86 (activated DCs); CD4 CD69 (activated T cells); CD8 CD69 (activated cytotoxic T cells); NK1.1 CD3^+ CD69 (activated NKT cells); NK1.1 CD3^− CD69 (activated NK cells); CD19 (B cells); and CD19 CD73 CD80 CD273 (memory B cells). The numbers of these mature, activated cells continued to increase with each injection.

[2] = Antigenicity assay of mouse sera; parameters: species or system mice; settings: alternate-day injections for 3 months, 1 nmol/g
Experimental: FIG. 10. Test for antigenicity of svL4 and sv6D. Anti-sera were generated in rabbits against KLH-conjugates of the sequences of svL4 or sv6D and diluted 1:10. Mouse sera were collected after alternate-day injections of svL4 over 3 months, diluted 1:1 with PBS and added to protein-A/G-coated wells. Biotinylated svL4 or sv6D was added to wells and bound peptide was detected with a streptavidin-peroxidase conjugate. The figure includes average values for sera from 8 treated mice in each group assayed separately.
Antigenicity Assay The sequence of one arm of svL4 or sv6D was conjugated to keyhole limpet hemocyanin (KLH) and injected into rabbits at two-week intervals (total of 3 injections) (New England Peptide, Inc., Gardner, Mass.). Two weeks after the final injection, sera were prepared. Mice were injected with a peptide every other day over a period of 3 months (total ˜45 injections), blood was then collected by cardiac puncture and sera were prepared. Rabbit serum was diluted 1:10, whereas mouse serum was diluted 1:1 or 1:5 with PBS containing 0.05% Tween-20 (PBST). Sera were incubated in microtiter wells coated with protein A/G (Pierce) for 90 min. The wells were washed three times with PBST, and then incubated with 50 μL of 1 μM biotinylated svL4 or sv6D for 1 h. […]

CD4 and CD8 T cells = assay: In vitro challenge of T cells from mice injected with sv6D-MOG; assay type: cell-based, C57BL/6 mice; settings: mice injected weekly x2 with 0.1 nmol/g; 72 h incubation
Experimental: FIGS. 11A-11B. Activation of T cells by sv6D-antigen conjugate. IFN-γ (FIG. 11A) and IL-2 (FIG. 11B) production upon in vitro challenge of T cells after weekly injections of sv6D or sv6D-MOG (MOG=myelin oligodendrocyte glycoprotein35-55) into C57BL/6 mice. One week after the second injection, spleen and right inguinal lymph node tissue were combined and homogenized to allow isolation of CD4 and CD8 T cells, which were mixed with non-T cell antigen presenting cells, and incubated 72 h with PBS, sv6D or sv6D-MOG. PMA (phorbol 12-myristate 13-acetate) and I (ionomycin) were added as positive controls. Activation of CD8^+ T cells indicated cross-presentation of the antigen to the cytosol of dendritic cells, mediated by sv6D.
Whereas sv6D is not antigenic in the mouse (FIG. 10), it is important to determine whether the peptide gains access to the cytosol of DCs. To test whether sv6D could initiate a TH1 response and activate CD8^+ T cells, a fragment of the myelin oligodendrocyte glycoprotein (MOG35-55) was attached to the C-terminus of sv6D and injected into mice. One week after a second weekly injection of 0.1 nmol/g peptide, CD4^+ and CD8^+ T cells were challenged in vitro with the conjugate. […] A high level of IL-2 was also released by CD4^+ T cells (FIG. 11B). These observations are typical of a strong response to vaccination and stimulation of clonal T cell proliferation. […]

peritoneal immune cells [3] = assay: Expansion of peritoneal cells after subcutaneous injection, flow cytometry; assay type: in vivo, Balb/c mice; settings: 24 h after a single s.c. injection, 1 nmol/g
Experimental: as §1, with “Cells were washed once in PBS containing 3% FBS, then stained with 0.25 to 1 μg of fluorescently conjugated antibody per 10^6 cells in 100 μL of buffer as recommended by the manufacturer (Table 1).” left out
Cells were incubated with the antibodies for 30 min at 4° C. in the dark. Following staining, the cells were washed two times with PBS/3% FBS and immediately analyzed with a MACSQuant flow cytometer (Miltenyi Biotech, Inc., San Diego, Calif.). […]
To examine whether increases occurred in mature immune cells, peritoneal cells from Balb/c and C57BL/6 mice were analyzed by flow cytometry after cells were stained with the markers listed in Table 1. […] Shown in FIGS. 7A-7D are results expressed as cell counts for F4/80 CD11b CD86 (mature, active macrophages); CD11c (DCs); CD11c CD86 (activated DCs); CD4 CD69 (activated T cells); CD8 CD69 (activated cytotoxic T cells); NK1.1 CD3^+ CD69 (activated NKT cells); NK1.1 CD3^− CD69 (activated NK cells); CD19 (B cells); and CD19 CD73 CD80 CD273 (memory B cells). […]

Substance	Change in mature, active peritoneal immune cell populations (peritoneal immune cells [1])	Overall peritoneal cell responses compared with svL4 (peritoneal immune cells [1]; DCs, T cells, NKT cells, days 0, 2, 4)	Antibodies that bind the peptides in mouse sera (antigenicity) [2]	IFN-γ release by CD4+ and CD8+ T cells on in vitro challenge (CD4 and CD8 T cells)	Injection after which a significant increase in peritoneal cells occurred (peritoneal immune cells [1]; 1 nmol/g s.c.)	Response of CD19+ B cells (peritoneal immune cells [1]; compared with sv6D)	Change in peritoneal macrophages, DCs, T cells and NK cells (peritoneal immune cells [3])
I: H-NQHTPRGGGSKK-NH2 / II: H-NQHTPRGGGSK / III: H-NQHTPRGGGS / IV: H-NQHTPRGGGS (amide I:11-IV:C, I:12-II:C, II:11-III:C) [sv6D]	several-fold increases	greater than those to svL4	negative; also recorded: not antigenic	did not induce IFN-γ release			
I: H-VQATQSNQHTPRGGGSKK-NH2 / II: H-VQATQSNQHTPRGGGSK / III: H-VQATQSNQHTPRGGGS / IV: H-VQATQSNQHTPRGGGS (amide I:17-IV:C, I:18-II:C, II:17-III:C) [svL4]	several-fold increases		negative		only after the second injection	responded more strongly	Several-fold increases
